Measurements reported in US8440442B2, “Method of assaying 5-FU” (Myriad Genetics, Inc, priority 2009, dated 2013).

Columns and labels:
[1] = target: T1, dihydropyrimidine dehydrogenase (DPD) (Homo sapiens, UniProt Q12882); test: 5-Vinyluracil, 5-iodouracil and gimeracil as stabilizer of 5-FU in spiked donor blood; type: biochemical; settings: 500 ng/mL 5-FU; 5-iodouracil 10/40 μg/mL, 5-vinyluracil 5/20 μg/mL, gimeracil 300/1,200 ng/mL; 45 minutes room temperature (FIG. 3)
T1 construct: from tissue; host or cells: donor whole blood (K2EDTA), plasma separated from it, and WBC/buffy coat
T1 sequence (Q12882 4-1025): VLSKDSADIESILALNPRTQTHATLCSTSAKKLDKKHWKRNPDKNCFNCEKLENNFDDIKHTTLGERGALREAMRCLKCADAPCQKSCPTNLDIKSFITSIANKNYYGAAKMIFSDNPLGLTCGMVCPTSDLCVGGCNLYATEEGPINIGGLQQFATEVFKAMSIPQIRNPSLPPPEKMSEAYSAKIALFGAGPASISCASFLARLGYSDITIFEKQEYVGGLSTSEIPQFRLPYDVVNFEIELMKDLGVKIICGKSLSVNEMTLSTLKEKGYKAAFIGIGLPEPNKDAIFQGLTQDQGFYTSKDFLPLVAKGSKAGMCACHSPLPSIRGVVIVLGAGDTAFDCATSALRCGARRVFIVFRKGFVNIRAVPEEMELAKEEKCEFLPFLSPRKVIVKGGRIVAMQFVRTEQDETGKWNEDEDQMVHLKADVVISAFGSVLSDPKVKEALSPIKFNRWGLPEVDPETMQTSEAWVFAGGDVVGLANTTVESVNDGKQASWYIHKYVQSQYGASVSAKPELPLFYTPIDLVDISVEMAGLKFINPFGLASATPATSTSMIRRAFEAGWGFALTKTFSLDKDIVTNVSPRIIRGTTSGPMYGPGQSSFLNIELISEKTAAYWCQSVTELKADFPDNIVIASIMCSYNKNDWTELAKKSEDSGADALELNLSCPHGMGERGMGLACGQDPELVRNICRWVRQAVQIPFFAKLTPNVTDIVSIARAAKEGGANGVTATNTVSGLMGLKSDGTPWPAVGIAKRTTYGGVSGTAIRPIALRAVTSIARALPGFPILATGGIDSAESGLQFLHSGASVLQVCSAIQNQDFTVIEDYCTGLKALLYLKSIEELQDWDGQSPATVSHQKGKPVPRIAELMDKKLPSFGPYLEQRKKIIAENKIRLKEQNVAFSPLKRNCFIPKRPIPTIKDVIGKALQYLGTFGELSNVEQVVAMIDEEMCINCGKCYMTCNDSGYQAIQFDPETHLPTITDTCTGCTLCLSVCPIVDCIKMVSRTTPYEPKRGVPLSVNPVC
Protocol: (§1) In the following illustrative examples, 5-FU was measured using an antibody-based agglutination assay on the Olympus AU680 Analyzer using an antibody disclosed in U.S. Pat. No. 7,205,116. Specifically, the concentration of 5-FU in a sample is determined based on the absorbance of a sample, which is determined by the amount of aggregation by the nanoparticles. The system requires two reagents, which when mixed in the absence of free 5-FU will form large aggregates of nanoparticles and scatter light to result in a higher absorption value. In the presence of free 5-FU, the agglutination reaction becomes somewhat inhibited and scattering of light is less, causing a lower absorption value. The instrument is calibrated twice monthly, and a curve is generated (Absorbance vs. 5-FU concentration). Absorbance values from individual samples are compared against this curve to determine concentration.
(§2) Generally in the agglutination assay, 95 μl of a buffer containing 5-FU-labeled amino-dextran is pipetted to a cuvette, followed by 7 μL of a filtered plasma sample. The sample and reagent are mixed and then incubated for about 3.5 minutes. 95 μl of 5-FU antibody-conjugated nanoparticles is pipetted into the cuvette and mixed. The complete reaction incubates for about 6.2 minutes. A series of 27 measurements at 600 nm are taken at regular intervals by the AU680 analyzer throughout this process, and 5-FU concentration is calculated using the measurements from two specific time points.
Three tubes of blood (spray-on K2EDTA tubes, 10 mL) was drawn from each of six donors, and blood tubes were gently inverted several times to mix anti-coagulant. Blood was pooled and kept separate by donor. An aliquot of each blood sample was transferred to a new conical tube, and a calculated volume of stock 5-FU (at 200 ng/μL) was spiked into each blood sample for a final concentration of 500 ng/mL 5-FU. Each blood sample was aliquotted to a set of four tubes (5 mL blood per tube). Each set of tubes was different, but included a combination of the conditions below: […]

[2] = target: T1, dihydropyrimidine dehydrogenase (DPD); test: Eniluracil as stabilizer of 5-FU in spiked donor blood (5-FU agglutination immunoassay); type: biochemical; settings: eniluracil 4000 or 1000 ng/mL final in blood, DMSO; 500 ng/mL 5-FU; room temperature 45 minutes or 24 hours (FIG. 2)
Protocol: as §1
as §2, with “95 μl of 5-FU antibody-conjugated nanoparticles is pipetted into the cuvette and mixed. The complete reaction incubates for about 6.2 minutes.” left out, “points. […]” for “points.”

## C=Cc1c[nH]c(=O)[nH]c1=O [5-vinyluracil]
[1]
  stabilizing 5-FU in blood samples: effective

## C#Cc1c[nH]c(=O)[nH]c1=O [eniluracil]
[2]
  preventing degradation of 5-FU in blood samples: effective

## O=c1[nH]cc(I)c(=O)[nH]1 [5-iodouracil]
[1]
  stabilizing 5-FU in blood samples: effective
